Tests used:
potassium arsenate = compound: O=[As]([O-])(O)O.[K+] [potassium arsenate]; assay: thermal stability z-score vs DMSO; higher = more thermally stabilized by treatment; details: HeLa; arsenate concentration 1 mM
Experimental: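 Cellular thermal proteome profiling in HeLa cells treated with 1 mM arsenate for 1 h (DMSO pretreatment), heated to ten temperatures (37-66.3 °C). Soluble protein was quantified by TMT mass spectrometry relative to DMSO controls; the thermal stability score was transformed to a z-score; mean of n = 3 experiments.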

lipoamide = compound: NC(=O)CCCCC1CCSS1 [lipoamide]; assay: as above; details: HeLa, lipoamide concentration 100 µM
Experimental: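 Cellular thermal proteome profiling in HeLa cells. Cells were treated with 100 µM lipoamide for 1 h, with or without 1 mM arsenate for a further 1 h, then heated to ten temperatures (37-66.3 °C), and soluble protein was quantified by TMT mass spectrometry relative to 0.1% DMSO controls. The thermal stability score (sum of log2 fold changes minus the abundance score) was transformed to a z-score; mean of n = 3 experiments.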

[1] = arsenate co-treatment: 1 mM arsenate 1 h
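Note: each temperature applied for 3 min, abundance score taken as mean log2 fold change at the two lowest temperatures, z-score obtained by mean subtraction and division by SD.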

UniProt Q8NI22, sequence (Q8NI22 whole entry): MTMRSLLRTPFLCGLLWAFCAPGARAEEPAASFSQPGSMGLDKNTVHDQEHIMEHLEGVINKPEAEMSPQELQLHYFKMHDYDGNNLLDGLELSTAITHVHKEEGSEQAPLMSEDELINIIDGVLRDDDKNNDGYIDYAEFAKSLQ
UniProt P49721, sequence (P49721 whole entry): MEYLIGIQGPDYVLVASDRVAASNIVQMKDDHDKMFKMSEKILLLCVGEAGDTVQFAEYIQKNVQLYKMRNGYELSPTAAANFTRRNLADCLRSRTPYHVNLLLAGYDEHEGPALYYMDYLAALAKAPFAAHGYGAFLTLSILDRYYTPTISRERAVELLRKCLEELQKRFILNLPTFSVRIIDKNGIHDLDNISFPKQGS
UniProt Q9Y4X0, sequence (Q9Y4X0 whole entry): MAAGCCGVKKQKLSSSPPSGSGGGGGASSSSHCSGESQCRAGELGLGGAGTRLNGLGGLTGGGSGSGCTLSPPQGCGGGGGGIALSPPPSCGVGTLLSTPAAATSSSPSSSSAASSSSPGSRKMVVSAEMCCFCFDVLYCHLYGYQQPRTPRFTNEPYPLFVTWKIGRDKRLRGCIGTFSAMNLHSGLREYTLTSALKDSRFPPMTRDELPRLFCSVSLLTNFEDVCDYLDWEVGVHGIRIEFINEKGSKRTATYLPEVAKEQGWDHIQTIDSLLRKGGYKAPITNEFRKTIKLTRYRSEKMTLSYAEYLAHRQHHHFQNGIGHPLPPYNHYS
UniProt Q9Y6W3, sequence (Q9Y6W3 whole entry): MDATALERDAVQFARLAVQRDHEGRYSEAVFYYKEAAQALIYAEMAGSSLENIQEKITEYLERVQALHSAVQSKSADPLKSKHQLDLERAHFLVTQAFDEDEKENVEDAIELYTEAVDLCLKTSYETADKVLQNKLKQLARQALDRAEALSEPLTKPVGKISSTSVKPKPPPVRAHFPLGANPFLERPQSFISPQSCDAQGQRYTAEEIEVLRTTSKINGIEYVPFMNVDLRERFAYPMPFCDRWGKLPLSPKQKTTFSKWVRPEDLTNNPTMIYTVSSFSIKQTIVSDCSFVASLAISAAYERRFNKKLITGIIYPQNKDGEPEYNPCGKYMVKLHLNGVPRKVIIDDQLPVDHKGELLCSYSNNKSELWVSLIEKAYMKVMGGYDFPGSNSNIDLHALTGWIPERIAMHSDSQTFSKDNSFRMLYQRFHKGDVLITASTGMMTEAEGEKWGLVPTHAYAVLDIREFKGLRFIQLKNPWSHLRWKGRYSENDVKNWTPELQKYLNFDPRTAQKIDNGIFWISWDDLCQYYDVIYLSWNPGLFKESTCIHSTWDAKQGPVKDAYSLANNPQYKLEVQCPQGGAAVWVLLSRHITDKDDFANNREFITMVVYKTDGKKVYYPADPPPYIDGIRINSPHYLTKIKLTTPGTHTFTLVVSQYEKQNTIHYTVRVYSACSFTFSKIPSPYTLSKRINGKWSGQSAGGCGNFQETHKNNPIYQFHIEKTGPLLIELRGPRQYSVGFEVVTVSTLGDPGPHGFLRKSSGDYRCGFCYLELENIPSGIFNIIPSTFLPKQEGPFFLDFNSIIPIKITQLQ
UniProt Q9NZN5, sequence (Q9NZN5 whole entry): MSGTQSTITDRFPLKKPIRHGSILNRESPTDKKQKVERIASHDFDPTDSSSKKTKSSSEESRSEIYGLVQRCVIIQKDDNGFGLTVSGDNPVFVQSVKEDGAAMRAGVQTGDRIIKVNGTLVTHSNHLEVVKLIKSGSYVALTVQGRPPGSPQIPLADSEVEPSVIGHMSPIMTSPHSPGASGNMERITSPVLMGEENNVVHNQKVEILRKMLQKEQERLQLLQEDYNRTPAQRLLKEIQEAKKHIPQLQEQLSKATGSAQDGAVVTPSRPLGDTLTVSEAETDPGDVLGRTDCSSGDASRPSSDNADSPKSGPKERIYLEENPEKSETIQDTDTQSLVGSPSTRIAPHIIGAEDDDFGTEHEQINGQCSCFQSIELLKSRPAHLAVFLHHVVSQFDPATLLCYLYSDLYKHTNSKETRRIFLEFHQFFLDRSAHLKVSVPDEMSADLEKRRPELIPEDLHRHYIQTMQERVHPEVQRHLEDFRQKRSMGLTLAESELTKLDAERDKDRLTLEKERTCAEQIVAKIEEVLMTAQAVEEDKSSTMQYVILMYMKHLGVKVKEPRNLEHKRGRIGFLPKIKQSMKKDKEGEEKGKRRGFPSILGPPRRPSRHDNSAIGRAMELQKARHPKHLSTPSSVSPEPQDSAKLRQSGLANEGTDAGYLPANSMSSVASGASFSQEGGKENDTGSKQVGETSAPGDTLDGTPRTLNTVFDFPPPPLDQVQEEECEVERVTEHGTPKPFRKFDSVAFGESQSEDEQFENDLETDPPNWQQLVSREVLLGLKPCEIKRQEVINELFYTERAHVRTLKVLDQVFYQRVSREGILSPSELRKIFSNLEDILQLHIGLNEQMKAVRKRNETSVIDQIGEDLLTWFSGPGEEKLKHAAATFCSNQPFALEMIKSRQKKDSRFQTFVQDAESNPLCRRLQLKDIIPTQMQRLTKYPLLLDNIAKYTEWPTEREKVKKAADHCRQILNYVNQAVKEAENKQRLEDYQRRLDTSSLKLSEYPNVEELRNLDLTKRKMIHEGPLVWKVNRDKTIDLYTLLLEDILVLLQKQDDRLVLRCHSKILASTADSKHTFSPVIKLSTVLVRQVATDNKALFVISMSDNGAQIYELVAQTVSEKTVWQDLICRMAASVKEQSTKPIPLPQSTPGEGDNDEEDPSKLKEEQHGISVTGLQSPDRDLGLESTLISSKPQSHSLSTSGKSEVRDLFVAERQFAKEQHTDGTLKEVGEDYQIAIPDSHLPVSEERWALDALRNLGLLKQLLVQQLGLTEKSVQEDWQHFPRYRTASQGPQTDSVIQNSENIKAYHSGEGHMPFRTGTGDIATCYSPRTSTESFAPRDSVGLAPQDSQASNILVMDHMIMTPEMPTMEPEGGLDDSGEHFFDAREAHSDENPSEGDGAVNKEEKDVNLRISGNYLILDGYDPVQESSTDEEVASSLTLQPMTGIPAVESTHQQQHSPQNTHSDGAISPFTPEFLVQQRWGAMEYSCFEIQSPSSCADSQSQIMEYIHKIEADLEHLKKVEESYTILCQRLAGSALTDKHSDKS
UniProt Q96HR8, sequence (Q96HR8 whole entry): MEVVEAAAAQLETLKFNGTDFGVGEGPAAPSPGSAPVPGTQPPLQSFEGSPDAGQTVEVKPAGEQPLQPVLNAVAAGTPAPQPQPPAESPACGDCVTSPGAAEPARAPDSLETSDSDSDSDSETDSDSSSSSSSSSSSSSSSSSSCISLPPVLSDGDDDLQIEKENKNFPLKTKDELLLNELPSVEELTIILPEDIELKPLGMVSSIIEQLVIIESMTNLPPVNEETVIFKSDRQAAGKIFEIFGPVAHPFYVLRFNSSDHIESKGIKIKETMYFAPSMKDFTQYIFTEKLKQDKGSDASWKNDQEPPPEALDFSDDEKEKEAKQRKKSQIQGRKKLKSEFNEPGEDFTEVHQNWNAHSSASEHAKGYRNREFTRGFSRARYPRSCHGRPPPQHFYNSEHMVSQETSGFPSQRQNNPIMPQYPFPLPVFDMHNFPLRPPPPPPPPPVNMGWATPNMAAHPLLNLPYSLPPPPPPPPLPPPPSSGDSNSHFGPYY
UniProt Q96A33, sequence (Q96A33 whole entry): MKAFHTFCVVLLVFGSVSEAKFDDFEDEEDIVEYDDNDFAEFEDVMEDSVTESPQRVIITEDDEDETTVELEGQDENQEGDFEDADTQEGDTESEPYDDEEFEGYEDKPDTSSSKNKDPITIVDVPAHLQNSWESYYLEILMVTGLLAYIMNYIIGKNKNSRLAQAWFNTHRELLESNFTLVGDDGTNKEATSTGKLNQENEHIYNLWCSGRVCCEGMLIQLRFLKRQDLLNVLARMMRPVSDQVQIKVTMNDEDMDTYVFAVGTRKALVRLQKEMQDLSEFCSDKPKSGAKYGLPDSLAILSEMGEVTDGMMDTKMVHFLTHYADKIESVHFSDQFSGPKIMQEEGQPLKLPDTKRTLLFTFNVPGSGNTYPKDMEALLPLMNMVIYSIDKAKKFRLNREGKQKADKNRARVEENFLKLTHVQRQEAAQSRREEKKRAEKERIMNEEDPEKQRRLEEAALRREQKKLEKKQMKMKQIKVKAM
UniProt Q96A49, sequence (Q96A49 whole entry): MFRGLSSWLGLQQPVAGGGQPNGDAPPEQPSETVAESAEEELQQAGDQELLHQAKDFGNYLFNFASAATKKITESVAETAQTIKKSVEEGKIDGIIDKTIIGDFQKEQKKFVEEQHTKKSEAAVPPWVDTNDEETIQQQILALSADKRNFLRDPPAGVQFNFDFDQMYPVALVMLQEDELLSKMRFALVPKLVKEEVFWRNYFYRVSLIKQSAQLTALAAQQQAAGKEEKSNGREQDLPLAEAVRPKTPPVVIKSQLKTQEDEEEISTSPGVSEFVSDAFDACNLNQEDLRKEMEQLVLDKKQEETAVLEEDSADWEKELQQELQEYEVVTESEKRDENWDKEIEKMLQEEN
UniProt Q6PK04, sequence (Q6PK04 whole entry): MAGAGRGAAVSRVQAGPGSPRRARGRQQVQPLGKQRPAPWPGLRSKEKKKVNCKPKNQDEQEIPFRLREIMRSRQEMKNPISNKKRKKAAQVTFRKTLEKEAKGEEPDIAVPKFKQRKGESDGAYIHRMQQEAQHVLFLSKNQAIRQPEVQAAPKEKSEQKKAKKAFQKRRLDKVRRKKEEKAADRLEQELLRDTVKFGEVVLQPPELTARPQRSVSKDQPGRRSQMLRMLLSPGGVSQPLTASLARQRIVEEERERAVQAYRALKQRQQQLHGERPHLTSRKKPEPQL
UniProt P36404, sequence (P36404 whole entry): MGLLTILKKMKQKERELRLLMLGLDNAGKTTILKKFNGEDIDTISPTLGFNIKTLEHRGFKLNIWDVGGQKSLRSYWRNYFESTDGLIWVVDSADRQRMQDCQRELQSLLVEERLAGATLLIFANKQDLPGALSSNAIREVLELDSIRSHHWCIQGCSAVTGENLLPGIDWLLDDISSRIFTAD

Target	thermal stability z-score (potassium arsenate)	thermal stability z-score (lipoamide; [1])	thermal stability z-score (lipoamide; arsenate co-treatment: none)
C9ORF85 (UniProt Q96MD7)	0.132	0.0672	1.62
UniProt H0YIV9|GATC	-0.0937	-0.219	-0.277
RPL29 (UniProt P47914)	-0.918	0.301	-0.146
SRPRB (UniProt Q9Y5M8)	1.49	-0.411	0.511
CTNNBL1 (UniProt Q8WYA6)	-0.00699	-0.0207	0.00313
CAPN7 (UniProt Q9Y6W3)	0.922	0.28	0.65
SMC6 (UniProt Q96SB8)	0.067	-0.138	0.113
ARL2 (UniProt P36404)	0.664	-0.405	-0.0766
CCDC47 (UniProt Q96A33)	-1.21	-0.4	-0.332
TAF2 (UniProt Q6P1X5)	-0.179	-0.03	-0.0592
KIF2A (UniProt O00139)	-0.0587	-0.584	-0.0403
PSMB2 (UniProt P49721)	1.08	1.49	1.31
EIF3B (UniProt P55884)	0.472	-0.333	0.0629
NAF1 (UniProt Q96HR8)	0.149	0.316	0.23
EPPK1 (UniProt P58107)	-0.359	-0.00734	0.0541
CCDC137 (UniProt Q6PK04)	-1.66	-0.531	-0.941
ARHGEF12 (UniProt Q9NZN5)	0.192	-0.125	-0.261
ANLN (UniProt Q9NQW6)	-1.45	0.066	0.0787

Target	thermal stability z-score (potassium arsenate)	thermal stability z-score (lipoamide; [1])	thermal stability z-score (lipoamide; arsenate co-treatment: none)
ANXA2 (UniProt P07355)	0.066	1.59	1.79
DOCK6 (UniProt Q96HP0)	-0.391	-0.406	-0.347
CEP85 (UniProt Q6P2H3)	-0.118	-0.00805	0.112
HN1L	0.214	0.978	0.827
GPN3 (UniProt Q9UHW5)	-0.524	-0.0577	-0.282
AMMECR1 (UniProt Q9Y4X0)	-0.217	-0.157	-0.0642
MCFD2 (UniProt Q8NI22)	-0.565	-0.221	-0.109
SYAP1 (UniProt Q96A49)	0.679	0.0475	-0.0361
RAB11B (UniProt Q15907)	-0.384	-0.384	-1.01
ARL6IP5 (UniProt O75915)	-0.256	-0.0796	0.285
SLBP (UniProt Q14493)	-1.06	-0.736	0.179
AGAP1 (UniProt Q9UPQ3)	-1.91	-1.59	-2.08
HNRNPLL|HNRPLL	-0.917	-0.126	-0.082
PLIN2 (UniProt Q99541)	2.1	0.587	0.338
POLR2H (UniProt P52434)	-0.373	0.98	1.03
CAV2 (UniProt P51636)	1.51	1.26	-0.268
FRG1 (UniProt Q14331)	0.312	0.146	0.243
EPS15 (UniProt P42566)	-0.469	-0.339	-0.0217

From the supplement of paper PMC12463676, “Small-molecule dissolution of stress granules by redox modulation benefits ALS models” (Nature Chemical Biology, 2025)
